“Also recorded” adds a separate entry of the source.
Columns and labels:
[1] = tested on: IL-6; test: IL-6 release from OSCC cells (ELISA); type: cell-based, human; conditions: 5 μM, fresh treatment q.d., base medium, 48 h
Description: Conditioned media from 24-hour sera-deprived JSCC-1, JSCC-2 and JSCC3 cells were analyzed using the Proteome Profiler Human Cytokine XL Array (R&D Systems, Minneapolis, Minn.), with image capture and analyses via the Li-Cor Odyssey imager and Image Studio software (Li-Cor Biosciences, Lincoln, Nebr.). Sera-free conditioned media for IL-6, VEGF, TGF-α and EGF were analyzed by ELISAs (R&D Systems, Minneapolis, Minn.), with data expressed as pg/10^6 cells.
) 0.01% DMSO (vehicle control), 2) 5 μM 4-HPR, 3) 2.5 μM 2-ME, 4) 1 μg/ml tocilizumab (TOC, […]) 5) 5 μM 4-HPR+2.5 μM 2-ME, 6) 5 μM 4-HPR+1 μg/ml TOC, 7) 2.5 μM 2-ME+1 μg/ml TOC, 8) 5 μM 4-HPR+2.5 μM 2-ME+1 μg/ml TOC. Following treatment, conditioned media were collected (ELISAs for IL-6, sIL-6R, TGF-α, VEGF, EGF, R&D Systems, Minneapolis, Minn.) and nuclear and cytosolic lysates (Nuclear Extract Kit, Active Motif, Carlsbad, Calif.) isolated for EMSAs (STAT3, NFκB p50 and p65, TransAM Transcription Factor ELISAs, Active Motif) and cytosolic and nuclear extracts for Westerns (NE-PER Nuclear and Cytoplasmic Extraction Reagents, ThermoFisher Scientific, Waltham Mass.). […]

[2] = tested on: JSCC1 cells; test: Tumorsphere formation and retention of proliferative capacity; type: cell-based, human
Description: JSCC1 cells were seeded at density of 5×10^5 cells in Advanced DMEM+5% FBS+1× GlutaMAX Supplement in Ultra-Low Attachment surface T-25 flasks with DMSO control (0.05%) and 5 μM 4-HPR treatment. Cell suspension cultures were treated for 3 days with fresh treatment every 24 h. While control cultures formed tumorspheres by 24 h, 4-HPR treated cellular interactions were limited to small cell aggregates. (Image scale at 100×.)
Following the treatment described in FIG. 4A above, the JSCC1 control and 4-HPR treated cells were returned to standard tissue culture flasks for seven days in 4-HPR free complete medium (Advanced DMEM+5% FBS+1× GlutaMAX Supplement). […] (Image scale 100×.)
5×10^5 JSCC1 cells (tumorsphere-formation competent unlike JSCC2 and JSCC3 cells) were plated in complete medium with either vehicle control (0.01% DMSO) or 5 μM 4-HPR in Corning Ultra-Low attachment tissue culture flasks (Sigma-Aldrich, St. Louis, Mo.) Suspension cultures received fresh medium and treatment q d for 7 days, with daily images capture via the Nikon DS-Ri+NIS Element. After 7 days, cells and medium were harvested, centrifuged, and cells replated in standard culture flasks containing complete medium. Images were obtained daily and cells harvested after 7 days in culture. Cell number (hemocytometer counts) and viability (trypan blue exclusion) were obtained.

[3] = cited from earlier work
[4] = target: ATP binding sites of FAK (Homo sapiens, UniProt Q05397); conditions: cited from earlier work
[5] = tested on: OSCC migration and invasion; conditions: cited from earlier work
[6] = JSCC1 cells pretreated with 5 μM, 7 days in 4-HPR free complete medium

Chain of ATP binding sites of FAK (Q05397 whole entry): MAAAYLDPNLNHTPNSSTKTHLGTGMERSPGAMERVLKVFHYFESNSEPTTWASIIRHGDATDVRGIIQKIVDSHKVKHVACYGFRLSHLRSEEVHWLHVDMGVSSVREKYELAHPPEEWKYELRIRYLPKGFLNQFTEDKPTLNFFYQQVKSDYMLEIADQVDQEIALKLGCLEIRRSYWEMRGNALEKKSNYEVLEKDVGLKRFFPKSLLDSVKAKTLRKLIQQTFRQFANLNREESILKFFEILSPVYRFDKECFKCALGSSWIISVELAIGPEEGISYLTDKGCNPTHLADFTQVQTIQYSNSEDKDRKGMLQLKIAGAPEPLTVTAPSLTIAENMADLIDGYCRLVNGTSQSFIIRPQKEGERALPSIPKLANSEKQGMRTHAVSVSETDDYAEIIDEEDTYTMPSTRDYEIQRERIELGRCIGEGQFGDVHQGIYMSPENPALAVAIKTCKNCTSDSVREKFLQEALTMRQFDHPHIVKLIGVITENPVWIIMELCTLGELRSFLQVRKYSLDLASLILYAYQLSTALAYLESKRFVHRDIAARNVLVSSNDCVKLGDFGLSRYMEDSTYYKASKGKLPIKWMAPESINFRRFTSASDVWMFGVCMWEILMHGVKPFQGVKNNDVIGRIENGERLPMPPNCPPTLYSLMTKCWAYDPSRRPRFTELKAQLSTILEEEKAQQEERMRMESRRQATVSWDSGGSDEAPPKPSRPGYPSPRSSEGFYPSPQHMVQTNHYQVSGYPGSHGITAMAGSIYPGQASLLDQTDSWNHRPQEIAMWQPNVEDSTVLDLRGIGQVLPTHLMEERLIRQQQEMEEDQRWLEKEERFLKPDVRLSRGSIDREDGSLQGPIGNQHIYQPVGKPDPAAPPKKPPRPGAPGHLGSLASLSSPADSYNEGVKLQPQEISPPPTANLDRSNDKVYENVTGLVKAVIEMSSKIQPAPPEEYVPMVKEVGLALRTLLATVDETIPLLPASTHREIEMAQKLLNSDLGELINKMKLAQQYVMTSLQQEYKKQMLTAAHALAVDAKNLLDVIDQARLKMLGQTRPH

## CC1=C(/C=C/C(C)=C/C=C/C(C)=C/C(=O)Nc2ccc(O)cc2)C(C)(C)CCC1 [4-HPR, 4-hydroxy(phenyl)retinamide]
[1]; JSCC1 cells
  increase of IL-6 release: ~50%
[1]; JSCC2 cells
  increase of IL-6 release: ~20%
[2]; [6]
  reattachment and viability after re-plating in standard flasks: failed to reattach; also recorded: failed to reattach and were uniformly non-vital
  trypan blue uptake after re-plating: 100%
[2]; JSCC1 cells, 5 μM, low attachment flasks
  tumorsphere formation: inhibits tumorsphere formation
[2]; discussion
  anoikis in tumorsphere-competent cells: induced anoikis
[3]
  log P: 8.03
[4]
  binding to ATP binding site: binds with high affinity
[5]
  OSCC migration and invasion: significantly inhibits

Source: patent US11484591B2, “Chemoprevention using controlled-release formulations of anti-interleukin 6 agents, synthetic vitamin A analogues or metabolites, and estradiol metabolites” (OHIO STATE INNOVATION FOUNDATION, priority 2016, dated 2022)
